# Experimental data as given in US20130253048A1, “Pharmaceutical Composition for Promoting Osteogenesis Containing Axial-equatorial Aryl-oriented Furofuran-type Lignan, and Pharmaceutical Preparation, Functional Food Product, and Health Food Product Comprising Composition” (ERINA CO., INC., priority 2010, published 2013).
# Marks after values point to notes of the source that are not given here.
# Key:
# MC3T3-E1 cells = test: Calcification of the osteoblast (ALP activity, alizarin red) in MC3T3-E1; assay type: cell-based, mouse
# Experimental: MC3T3-E1 cells as the same as those used in Example 4 were used. In addition, 50 μg/ml of L-ascorbic acid and 10 mM β-Glycerophosphate (both from Sigma-Aldrich Japan Co. LLC.) were added to the basal medium employed in the Example 3 was used. Fargesin prepared in the Example 1 was added to the medium the concentration at 2 to 80 μM.
# MC3T3-E1 was inoculated in each well of the 96 well plates at 4,000 cells/well, and then the plate was pre-cultured by using only basal mediums under the condition of 5% CO2 and 37 degree centigrade for 2 days. After that, the medium was exchanged to the medium containing 50 μg/ml of L-ascorbic acid, 10 mM β-Glycerophosphate, and fargesin, and it was incubated under the condition of 5% CO2 and 37 degree centigrade for 5 days. After the termination of the incubation, the measurement of ALP activity and the differentiated cells were observed as the same as those in Example 3.
# Mineral deposition was stained by using 1% alizarin red observed as the bone calcification (Wako Pure Chemical Industries, Ltd.) according to the conventional method, and then it was observed as the bone calcification.
# [1] = tested on: osteopenia mouse caused by sRANKL administration; test: Osteopenia mouse caused by sRANKL administration, femur pQCT; assay type: in vivo; details: for Bone density of the cancellous bone, relative value / Bone density of the cortical bone, relative value / Bone density of whole bone, relative value: RANKL group = 100.0; for Bone density of the cancellous bone / Bone density of the cortical bone / Bone density of whole bone: day 4 to 13; for Bone density of whole bone: right femur, pQCT
# Experimental: C57BL/6NCrlCrlj mice (6-week-age, female) were purchased from Oriental Yeast Co., Ltd. and kept to be acclimatized under the conditions of 12 hour light/dark cycle, 23±3 degree centigrade, and humidity 55±5% for 7 days. Two mice were in a cage, and the animal bedding was changed twice a week, and all fresh animal bedding was used at all times. As the feed, CRF-1 (Oriental Yeast Co., Ltd.), and deionized water as the drinking water were freely taken.
# After the acclimatization, these mice were randomly divided into 4 groups (8 mice per group), sRANKL administration group and fargesin administration groups. Fargesin administration groups had 0.2 mg/kg/day administration group (it is referred to as “Far 0.2”, hereinbelow), 2 mg/kg/day administration group (it is referred to as “Far 2” herein below), and 20 mg/kg/day administration group (it is referred to as “Far 20” herein below). sRANKL (1 mg/kg/day, i.p) was administered to all mice on the first day and the second day from test start to cause osteopenia experimentally.
# From the 4th day to 13th day after the test start, distilled water or the test compounds shown in the following Table 10 were daily administered to the mice in each group.
# After the administration period was finished and the experiment was completed, the femurs were removed in the same way as employed in Example 6 to be excised to evaluate the bone density. Body weight of the test animals and feed intake by the test animals were measured twice a week during the administration period.
# The experiments were performed as the same as done in Example 6, right femur chosen from the obtained femurs was used for measurement of the bone density.
# The whole bone density, the cancellous bone density, the cortical bone density, the boundary length of the cortical bone adventitia, the length of the cortical bone endosteum, and the bone strength were measured at the site of −0.6 mm from the growth plate of the bone (see FIG. 3A).
# [2] = sRANKL-treated mice, Far 0.2: 0.2 mg/kg/day p.o.
# [3] = sRANKL-treated mice, Far 2: 2 mg/kg/day p.o.
# [4] = sRANKL-treated mice, Far 20: 20 mg/kg/day p.o.
structure (smiles),measurement,setting,value
"COc1ccc([C@@H]2OC[C@H]3[C@@H]2CO[C@@H]3c2ccc3c(c2)OCO3)cc1OC [fargesin, Fargesin]","Mineral deposition (calcification), alizarin red staining","MC3T3-E1 cells; 60 to 80 μM, MC3T3-E1",increased mineral deposition side
same,activity at 2 µM,"MC3T3-E1 cells; Mus musculus, 120 h, 2 μM, MC3T3-E1 with L-ascorbic acid and β-Glycerophosphate, 5 days, negative control = 100",93.3 ± 2.6%
same,activity at 6 µM,"MC3T3-E1 cells; Mus musculus, 120 h, 6 μM, MC3T3-E1 with L-ascorbic acid and β-Glycerophosphate, 5 days, negative control = 100",92.8 ± 1.6%
same,activity at 20 µM,"MC3T3-E1 cells; Mus musculus, 120 h, 20 μM, MC3T3-E1 with L-ascorbic acid and β-Glycerophosphate, 5 days, negative control = 100",107 ± 3.8%
same,activity at 60 µM,"MC3T3-E1 cells; Mus musculus, 120 h, 60 μM, MC3T3-E1 with L-ascorbic acid and β-Glycerophosphate, 5 days, negative control = 100",173 ± 13.7%
same,activity at 80 µM,"MC3T3-E1 cells; Mus musculus, 120 h, 80 μM, MC3T3-E1 with L-ascorbic acid and β-Glycerophosphate, 5 days, negative control = 100",172 ± 12.2%
same,"Bone density of the cancellous bone, relative value",[1]; Far 0.2: 0.2 mg/kg/day p.o.,(100.7)
same,"Bone density of the cortical bone, relative value",[1]; Far 0.2: 0.2 mg/kg/day p.o.,(98.7)
same,"Bone density of whole bone, relative value",[1]; Far 0.2: 0.2 mg/kg/day p.o.,99.5
same,"Bone density of the cancellous bone, relative value",[1]; Far 2: 2 mg/kg/day p.o.,(104.0)
same,"Bone density of the cortical bone, relative value",[1]; Far 2: 2 mg/kg/day p.o.,(98.9)
same,"Bone density of whole bone, relative value",[1]; Far 2: 2 mg/kg/day p.o.,99.5
same,"Bone density of the cancellous bone, relative value",[1]; Far 20: 20 mg/kg/day p.o.,(129.4)*
same,"Bone density of the cortical bone, relative value",[1]; Far 20: 20 mg/kg/day p.o.,(98.6)
same,"Bone density of whole bone, relative value",[1]; Far 20: 20 mg/kg/day p.o.,110
same,"bone strength, Polar coordinates strength (SSI)","[1]; sRANKL-treated mice, 0.2 to 20 mg/kg/day p.o.",trend that the bone strength was improved
same,Bone density of the cancellous bone,[1]; [2],261.64 ± 17.92 mg/mL
same,Bone density of the cortical bone,[1]; [2],797.40 ± 6.12 mg/mL
same,Bone density of whole bone,[1]; [2],484.33 ± 11.09 mg/mL
same,Bone density of the cancellous bone,[1]; [3],270.30 ± 20.64 mg/mL
same,Bone density of the cortical bone,[1]; [3],798.60 ± 4.56 mg/mL
same,Bone density of whole bone,[1]; [3],487.30 ± 16.36 mg/mL
same,Bone density of the cancellous bone,[1]; [4],336.25 ± 13.50 mg/mL
same,Bone density of the cortical bone,[1]; [4],796.33 ± 3.89 mg/mL
same,Bone density of whole bone,[1]; [4],532.69 ± 8.06 mg/mL
